#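 Cultured in 96-well plates, cells were exposed to test compound for 48 hours across five concentrations. Abbreviation: GI50, concentration required for 50% inhibition of growth. TGI marks complete inhibition of growth.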
# Experiments:
# Experiment in all cases: NCI tumour cell line growth inhibition, 48 h
# 786-0 renal = tested on: 786-0 renal
# BT-549 breast = tested on: BT-549 breast
# HCT-116 colon = tested on: HCT-116 colon
# IGROV1 ovarian = tested on: IGROV1 ovarian
# MCF7 breast = tested on: MCF7 breast
# NCI-H460 lung = tested on: NCI-H460 lung
# SNB-19 CNS = tested on: SNB-19 CNS
# T-47D breast = tested on: T-47D breast
# U251 CNS = tested on: U251 CNS
# HT29 colon = tested on: HT29 colon
Compound,GI50 (786-0 renal) [µM],TGI (786-0 renal) [µM],GI50 (BT-549 breast) [µM],TGI (BT-549 breast) [µM],GI50 (HCT-116 colon) [µM],TGI (HCT-116 colon) [µM],GI50 (IGROV1 ovarian) [µM],TGI (IGROV1 ovarian) [µM],GI50 (MCF7 breast) [µM],TGI (MCF7 breast) [µM],GI50 (NCI-H460 lung) [µM],TGI (NCI-H460 lung) [µM],GI50 (SNB-19 CNS) [µM],TGI (SNB-19 CNS) [µM],GI50 (T-47D breast) [µM],TGI (T-47D breast) [µM],GI50 (U251 CNS) [µM],TGI (U251 CNS) [µM],TGI (HT29 colon) [µM],GI50 (HT29 colon) [µM]
O=[N+]([O-])c1cc(S(=O)(=O)Oc2ccccc2)ccc1Cl,4.65,15.5,5.43,17,1.85,3.43,1.77,3.22,2.06,4.31,2.04,4.06,3.11,11.1,2.21,5.38,1.27,2.6,,
CN(CC(N)=O)C(=O)N(CCCl)N=O,,> 100,,> 100,,> 100,,> 100,,> 100,,> 100,,> 100,,> 100,,> 100,> 100,
CN1CCN(Cc2ccc(NC(=O)c3[nH]ncc3Nc3ncnc4sc5c(c34)CCCC5)cc2)CC1,0.365,1.9,1.23,2.65,,,0.258,1.3,,,0.136,1.05,0.282,1.48,0.457,13.5,,,1.92,0.234
CC(C)=CCC/C(C)=C/CC/C(C)=C/CC/C=C(\C)CC/C=C(\C)CCC(=O)Nc1ccn(C2OC(CO)C(O)C2(F)F)c(=O)n1 (centres undefined),< 0.0157,< 0.0341,,0.472,0.0314,1.14,0.142,11.1,< 0.011,4.34,0.0444,3.74,0.0245,11.7,0.089,11.8,0.0884,16.1,48.9,0.594
BrCc1ccc(CBr)cc1,2.59,8.63,,3.8,5.4,,7,> 87.4,1.89,> 21.7,4.84,17.4,0.528,25.8,12.7,48.8,6.25,> 100,> 23.9,4.38
COc1ccc(OC)c(C2SCC(=O)N2NC(=O)C(O)c2ccccc2)c1 (centres undefined),> 100,> 100,> 100,> 100,> 100,> 100,> 100,> 100,> 100,> 100,> 100,> 100,> 100,> 100,> 100,> 100,> 100,> 100,> 100,> 100
CC(C)(C)c1ccc(C(=O)Nc2sc3c(c2C(N)=O)CCC(=O)C3)cc1,1.86,5.07,0.356,1.56,0.287,1.29,0.684,2.29,0.402,2.96,0.586,1.94,0.457,1.94,0.261,1.65,0.345,1.43,3.5,0.489
CCn1c2ccccc2c2cc(/C=C(/C#N)C(N)=O)ccc21,10.6,> 100,0.938,44.7,3.71,> 52.4,2.87,> 51.9,0.857,> 47.3,1.67,13.3,10.2,> 87.8,3.33,> 100,5.45,> 100,> 100,5.18
CCN1C(=O)N(CC)C2C1NN=c1s/c(=C3\C(=O)N(CCc4ccccc4)c4ccccc43)c(=O)n12 (centres undefined),1.04,13.5,1.49,4.97,0.347,1.4,0.672,,0.353,> 67.7,0.361,1.88,0.845,19.6,1.19,> 23.9,0.413,15.6,1.58,0.351
Nc1ccccc1SCc1csc(-c2ccc(Cl)cc2)n1,,47.5,,72.1,,> 100,,> 100,,71.8,,> 77.2,,> 100,,23.4,,60.1,46.2,
Cn1cncc1CC1COC(=O)C1C(O)c1ccccc1 (centres undefined),,> 100,,> 100,,> 100,,> 100,,> 100,,> 100,,> 100,,> 100,,> 100,> 100,
CC1(C)CCC[C@]2(C)[C@@H](C=O)C(C=O)=CC[C@@H]12,,> 100,,74.2,,83.4,,44.4,,31,,,,77.4,,60.3,,46.9,30,
CC1(C)OC2C(=O)C=C(COCc3ccccc3)C2O1 (centres undefined),,> 100,,39.8,,54.3,,53.5,,> 100,,,,> 100,,56.3,,90,> 100,
CCN(Cc1ccc(Cl)s1)c1ccc(CO)c(Cl)c1,2.99,21.2,8.19,24.8,0.0464,11.3,0.0722,0.337,0.119,12.3,0.202,10,20.7,> 93.5,0.121,0.582,0.434,13.2,16.4,3.01
CN(C)CC1CCCC1=O (centres undefined),,16,,13.8,,2.78,,21.5,,7.03,,34.6,,50,,15.2,,14.9,2.06,
C[CH2][Pb]([CH2]C)([CH2]C)[O]C(=O)c1ccc2ccccc2n1,> 10,> 10,> 10,> 10,> 10,> 10,> 10,> 10,,,> 10,> 10,> 10,> 10,> 10,> 10,> 10,> 10,> 10,> 10

# Reference: PubChem BioAssay (NCI)
